Organism: Rattus norvegicus
Test: Open TG-GATES - Regimen: Single
Assay type: toxicity, organism-based, Sprague-Dawley
Set-up: regimen Single, gender Male, age 6 weeks
Details: in vivo, iv, route intravenous injection; for Ca / Cl / DBIL / GLC / IP / K / LDH / Na / PL / RALB / TBIL / TC / TG / TP / gamma-GTP / A/G / ALP / ALT / AST / BUN / CRE: tissue Plasma; for APTT / Fbg / Hb / Ht / MCH / MCHC / MCV / PT / Plat / RBC / Ret / WBC: tissue Blood; for KIDNEY_L / KIDNEY_R / KIDNEY_TOTAL: tissue Kidney; for LIVER: tissue Liver
[1] = 3 mg/kg, 24 h, dose level Middle

C[C@@H]1C[C@@H]([C@H](O)CC2CC(=O)NC(=O)C2)C(=O)[C@@H](C)C1 [CYCLOHEXIMIDE]
Ca [1]: 9.8 mg/dL | Cl [1]: 107.6 meq/L | DBIL [1]: 0.004 mg/dL | GLC [1]: 177 mg/dL | IP [1]: 7.3 mg/dL | K [1]: 4.4 meq/L | LDH [1]: 231 IU/L | Na [1]: 138.8 meq/L | PL [1]: 74 mg/dL | RALB [1]: 2.4 g/dL | TBIL [1]: 0.028 mg/dL | TC [1]: 38.4 mg/dL | TG [1]: 80 mg/dL | TP [1]: 4.2 g/dL | gamma-GTP [1]: 1.6 IU/L | TERMINAL_BW (10 mg/kg, 3 h, dose level High): 216.7 g | APTT (10 mg/kg, 3 h, dose level High): 24.3 s | Fbg (10 mg/kg, 3 h, dose level High): 301 mg/dL | Hb (10 mg/kg, 3 h, dose level High): 15.2 g/dL | Ht (10 mg/kg, 3 h, dose level High): 47.2% | MCH (10 mg/kg, 3 h, dose level High): 21 pg | MCHC (10 mg/kg, 3 h, dose level High): 32.3% | MCV (10 mg/kg, 3 h, dose level High): 65.2 fL | PT (10 mg/kg, 3 h, dose level High): 18.5 s | Plat (10 mg/kg, 3 h, dose level High): 133.4 x10_4/uL | RBC (10 mg/kg, 3 h, dose level High): 726.4 x10_4/ul | Ret (10 mg/kg, 3 h, dose level High): 9.6% | WBC (10 mg/kg, 3 h, dose level High): 375 x10_2/uL | KIDNEY_L (10 mg/kg, 3 h, dose level High): 1 g | KIDNEY_R (10 mg/kg, 3 h, dose level High): 1 g | KIDNEY_TOTAL (10 mg/kg, 3 h, dose level High): 2 g | LIVER (10 mg/kg, 3 h, dose level High): 9.2 g | A/G (10 mg/kg, 3 h, dose level High): 1.3 | ALP (10 mg/kg, 3 h, dose level High): 1467 IU/L | ALT (10 mg/kg, 3 h, dose level High): 74 IU/L | AST (10 mg/kg, 3 h, dose level High): 314.6 IU/L | BUN (10 mg/kg, 3 h, dose level High): 41.4 mg/dL | CRE (10 mg/kg, 3 h, dose level High): 0.1 mg/dL | Ca (10 mg/kg, 3 h, dose level High): 9.8 mg/dL | Cl (10 mg/kg, 3 h, dose level High): 109 meq/L | DBIL (10 mg/kg, 3 h, dose level High): 0.006 mg/dL | GLC (10 mg/kg, 3 h, dose level High): 334.2 mg/dL | IP (10 mg/kg, 3 h, dose level High): 13.4 mg/dL | K (10 mg/kg, 3 h, dose level High): 5.1 meq/L | LDH (10 mg/kg, 3 h, dose level High): 1625.2 IU/L | Na (10 mg/kg, 3 h, dose level High): 140 meq/L | PL (10 mg/kg, 3 h, dose level High): 82.4 mg/dL | RALB (10 mg/kg, 3 h, dose level High): 3 g/dL | TBIL (10 mg/kg, 3 h, dose level High): 0.014 mg/dL | TC (10 mg/kg, 3 h, dose level High): 63.8 mg/dL | TG (10 mg/kg, 3 h, dose level High): 20 mg/dL | TP (10 mg/kg, 3 h, dose level High): 5.3 g/dL | gamma-GTP (10 mg/kg, 3 h, dose level High): 3.2 IU/L | TERMINAL_BW (10 mg/kg, 6 h, dose level High): 213.8 g | APTT (10 mg/kg, 6 h, dose level High): 31.7 s | Fbg (10 mg/kg, 6 h, dose level High): 270.2 mg/dL | Hb (10 mg/kg, 6 h, dose level High): 17.7 g/dL | Ht (10 mg/kg, 6 h, dose level High): 54.8% | MCH (10 mg/kg, 6 h, dose level High): 21.6 pg | MCHC (10 mg/kg, 6 h, dose level High): 32.3% | MCV (10 mg/kg, 6 h, dose level High): 66.8 fL | PT (10 mg/kg, 6 h, dose level High): 29.8 s | Plat (10 mg/kg, 6 h, dose level High): 131.6 x10_4/uL | RBC (10 mg/kg, 6 h, dose level High): 818.8 x10_4/ul | Ret (10 mg/kg, 6 h, dose level High): 8.7% | WBC (10 mg/kg, 6 h, dose level High): 396.9 x10_2/uL | KIDNEY_L (10 mg/kg, 6 h, dose level High): 1 g | KIDNEY_R (10 mg/kg, 6 h, dose level High): 1 g | KIDNEY_TOTAL (10 mg/kg, 6 h, dose level High): 2 g | LIVER (10 mg/kg, 6 h, dose level High): 7.9 g | A/G (10 mg/kg, 6 h, dose level High): 1.1 | ALP (10 mg/kg, 6 h, dose level High): 1518.4 IU/L | ALT (10 mg/kg, 6 h, dose level High): 76.2 IU/L | AST (10 mg/kg, 6 h, dose level High): 315.8 IU/L | BUN (10 mg/kg, 6 h, dose level High): 69.4 mg/dL | CRE (10 mg/kg, 6 h, dose level High): 0.2 mg/dL | Ca (10 mg/kg, 6 h, dose level High): 7.2 mg/dL | Cl (10 mg/kg, 6 h, dose level High): 108.8 meq/L | DBIL (10 mg/kg, 6 h, dose level High): 0.002 mg/dL | GLC (10 mg/kg, 6 h, dose level High): 250.6 mg/dL | IP (10 mg/kg, 6 h, dose level High): 16.5 mg/dL | K (10 mg/kg, 6 h, dose level High): 6 meq/L | LDH (10 mg/kg, 6 h, dose level High): 1124 IU/L

Source: ChEMBL document CHEMBL3885861, “Open TG-GATES”
